Laboratory results reported in patent US6713506B2, “Tea polyphenol esters and analogs thereof for cancer prevention and treatment” (University of South Florida, priority 2000, dated 2004).
pIC50: −log10 of the molar value. Each block holds one compound with its values, some of them ahead of it. Non-standard residues stand in square brackets, D forms with d. Residues, ends and D or L forms follow the SMILES beside them. *: point of attachment. Nle = CCCC[C@H](N)C(=O)O; Nva = CCC[C@H](N)C(=O)O; Cbz = O=C(OCc1ccccc1)*

Key:
[1] = biological target: T1, caspase-3-like activity in Jurkat T cell extract (Homo sapiens, UniProt P42574); assay: Caspase-3 activity assay in Jurkat T cell extract; assay type: biochemical
T1 construct: endogenous in cells; host or cells: Jurkat T cell whole cell extract
T1 sequence (P42574 29-175 limits assumed): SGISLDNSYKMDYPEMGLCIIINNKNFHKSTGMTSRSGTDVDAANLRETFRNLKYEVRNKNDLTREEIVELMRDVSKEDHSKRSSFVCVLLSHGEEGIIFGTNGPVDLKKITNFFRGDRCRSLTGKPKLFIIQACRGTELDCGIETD
T1 sequence (P42574 176-277 limits assumed): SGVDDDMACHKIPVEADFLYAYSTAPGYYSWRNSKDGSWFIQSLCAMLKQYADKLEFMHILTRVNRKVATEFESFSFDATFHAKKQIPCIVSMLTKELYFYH
Protocol: Calpain I and Caspase-3 activities assays with tea polyphenols—To measure calpain I activity, 3 μg purified calpain I (Human Erythrocytes, Calbiochem) is incubated with 40 μM of a fluorogenic peptide substrate, Suc-Leu-Tyr-AMC (Calbiochem), for 30 min at 37° C. in 100 μl of assay buffer (50 mM Tris-HCl, pH 7.5, containing 50 mM NaCl, 1 mM EDTA, 1 mM EGTA, 5 mM β-Mercaptoethanol, 5 mM CaCl2, and 0.1% CHAPS), with or without EGCG. After incubation, the reaction mixture is diluted to 200 μl with the assay buffer, and the hydrolyzed AMCs are quantified as described above. For caspase-3 activity assay, the whole cell extract (3.5 μg) from Jurkat T cells is incubated for 90 min at 37° C. with 20 μM of a fluorogenic peptide substrate, Ac-Asp-Glu-Val-Asp-AMC. These procedures were similar to those of the proteasome assay with cell free extracts described above.

purified calpain I = biological target: T2, purified calpain I (Homo sapiens, UniProt P07384); assay: Calpain I activity assay; assay type: biochemical; details: FIG. 3B: EGCG 10 μM, calpeptin 1 μM
T2 construct: 3 μg purified calpain I (Human Erythrocytes, Calbiochem) is incubated; purchased Calbiochem; host or cells: human erythrocytes (tissue-purified)
T2 sequence (P07384 1-714): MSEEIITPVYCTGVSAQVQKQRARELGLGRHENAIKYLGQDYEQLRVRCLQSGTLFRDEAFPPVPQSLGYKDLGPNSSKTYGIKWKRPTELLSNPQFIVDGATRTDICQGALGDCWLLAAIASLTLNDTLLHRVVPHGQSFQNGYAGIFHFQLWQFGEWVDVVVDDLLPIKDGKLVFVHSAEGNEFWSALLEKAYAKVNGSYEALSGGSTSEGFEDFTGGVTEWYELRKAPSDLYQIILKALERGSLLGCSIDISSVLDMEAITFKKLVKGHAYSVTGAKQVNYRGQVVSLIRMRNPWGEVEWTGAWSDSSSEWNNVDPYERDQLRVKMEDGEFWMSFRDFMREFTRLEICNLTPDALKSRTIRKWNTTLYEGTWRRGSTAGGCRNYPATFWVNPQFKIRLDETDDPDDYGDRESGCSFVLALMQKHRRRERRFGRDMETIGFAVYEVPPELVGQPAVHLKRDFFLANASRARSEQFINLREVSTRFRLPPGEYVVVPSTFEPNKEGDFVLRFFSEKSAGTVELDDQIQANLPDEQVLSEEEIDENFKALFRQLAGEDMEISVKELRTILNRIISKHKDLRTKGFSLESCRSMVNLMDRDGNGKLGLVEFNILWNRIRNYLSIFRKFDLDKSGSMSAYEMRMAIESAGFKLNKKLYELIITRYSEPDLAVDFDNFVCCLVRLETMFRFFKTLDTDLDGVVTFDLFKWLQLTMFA
T2 sequence (P04632 1-268 partner): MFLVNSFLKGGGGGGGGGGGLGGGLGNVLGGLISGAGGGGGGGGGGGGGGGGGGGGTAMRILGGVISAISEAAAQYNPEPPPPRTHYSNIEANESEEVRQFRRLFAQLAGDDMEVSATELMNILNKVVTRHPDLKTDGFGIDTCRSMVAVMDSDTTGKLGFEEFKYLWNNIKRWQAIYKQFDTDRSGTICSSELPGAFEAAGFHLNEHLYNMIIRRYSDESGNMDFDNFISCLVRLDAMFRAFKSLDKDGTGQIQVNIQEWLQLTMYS
Protocol: (§1) FIG. 8. […] A). […] Initially, 0.5 μg of purified 20S proteasome is incubated with 20 μM of a fluorogenic peptide substrate, Suc-Leu-Leu-Val-Tyr-AMC, for 30 min at 37° C. in 100 μl of assay buffer (20 mM Tris-HCl, pH 8.0) with various concentrations of tannic acid. After incubation, the reaction mixture is diluted to 200 μl with the assay buffer, followed by measurement of the hydrolyzed 7-amido-4-methyl-coumarin (AMC) groups using a fluorometer with an excitation filter of 380 nm and an emission filter of 460 nm. B). […] Tannic acid (0.3 μg/ml) and Glucose (180 μg/ml) are used in the proteasome activity assay as described above. C). […] Purified calpain I (3 μg) protein is incubated with 40 μM of a fluorogenic peptide substrate, Suc-Leu-Tyr-AMC, for 30 min at 37° C. in 100 μl of assay buffer (50 mM Tris-HCl, pH 7.5, containing 50 mM NaCl, 1 mM EDTA, 1 mM EGTA, 5 mM β-Mercaptoethanol, 5 mM CaCl2, and 0.1% CHAPS) in the absence (control) or presence of 5 μg/ml of tannic acid or 0.18 μg/ml of calpeptin (calpain inhibitor).

[2] = biological target: chymotrypsin-like activity of purified 20S proteasome (UniProt Q9P992); assay type: biochemical; details: for pIC50: read-out: IC50 towards the chymotrypsin-like activity of purified 20S proteasome
Sequence of chymotrypsin-like activity of purified 20S proteasome (UniProt Q9P992) (Q9P992 whole entry): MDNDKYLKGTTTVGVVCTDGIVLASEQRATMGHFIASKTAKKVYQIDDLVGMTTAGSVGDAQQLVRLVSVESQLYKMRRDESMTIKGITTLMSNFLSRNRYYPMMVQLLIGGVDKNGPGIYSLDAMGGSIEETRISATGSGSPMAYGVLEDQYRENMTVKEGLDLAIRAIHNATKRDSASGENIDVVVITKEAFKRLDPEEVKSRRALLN
Protocol: as §1
(§2) Inhibition of the proteasome activity in vitro by tea polyphenols—To measure the 20S proteasome chymotrypsin-like activity, 0.5 μg of a purified 20S proteasome (Calbiochem) is incubated with 20 μM of a fluorogenic peptide substrate, Suc-Leu-Leu-Val-Tyr-AMC (Calbiochem), for 30 min at 37° C. in 100 μl of assay buffer (20 mM Tris-HCl, pH 8.0), with or without tea polyphenols (purity >95%; Sigma) or tea extract. After incubation, the reaction mixture is diluted to 200 μl with the assay buffer, followed by measurement of the hydrolyzed 7-amido-4-methyl-coumarin (AMC) groups using a VersaFluor™ Fluorometer with an excitation filter of 380 nm and an emission filter of 460 nm (Bio-Rad).

[3] = biological target: chymotrypsin-like activity of purified 20S proteasome; assay type: biochemical; details: read-out: IC50 towards the chymotrypsin-like activity of purified 20S proteasome
Sequence of chymotrypsin-like activity of purified 20S proteasome (Q9P992 whole entry): as above
Protocol: as §1, §2

[4] = biological target: T3, proteasome activity in MCF-7 cells (Homo sapiens, UniProt P28072+P28074+Q99436); assay: Proteasome activity in lysate of pretreated MCF-7 cells; assay type: cell-based; details: MCF-7 cells pretreated with inhibitor
T3 construct: endogenous in cells; host or cells: MCF-7 cells, pretreated and then lysed
T3 sequence (P28074 60-263): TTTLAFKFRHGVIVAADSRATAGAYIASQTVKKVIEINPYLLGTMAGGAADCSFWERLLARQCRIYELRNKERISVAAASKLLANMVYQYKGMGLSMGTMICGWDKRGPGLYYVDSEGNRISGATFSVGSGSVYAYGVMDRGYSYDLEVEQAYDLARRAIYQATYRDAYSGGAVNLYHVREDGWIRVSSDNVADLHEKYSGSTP
T3 sequence (P28072 1-239): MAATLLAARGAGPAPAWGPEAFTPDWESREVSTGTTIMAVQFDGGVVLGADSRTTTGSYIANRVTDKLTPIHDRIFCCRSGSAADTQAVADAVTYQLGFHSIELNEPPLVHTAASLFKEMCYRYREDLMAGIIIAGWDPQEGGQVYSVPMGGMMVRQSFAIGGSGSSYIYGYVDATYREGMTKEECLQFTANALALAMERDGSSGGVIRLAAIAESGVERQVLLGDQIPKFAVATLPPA
T3 sequence (Q99436 44-277): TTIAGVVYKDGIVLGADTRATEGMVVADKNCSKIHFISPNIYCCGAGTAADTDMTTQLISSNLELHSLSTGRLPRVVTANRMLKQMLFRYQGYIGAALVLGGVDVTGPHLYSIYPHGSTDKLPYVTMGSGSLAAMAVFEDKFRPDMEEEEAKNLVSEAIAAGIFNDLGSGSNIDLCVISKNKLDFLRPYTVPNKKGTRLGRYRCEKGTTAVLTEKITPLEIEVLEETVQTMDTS
Protocol: (a) The selected cell lines are treated with EGCG (vs. EGC) or ECG (vs. EC) at various concentrations (0-80 μM) for up to 96 h, followed by preparation of protein extracts and measurement of the proteasomal chymotrypsin-like, trypsin-like and PGPH activities and the calpain activity in cell-free assay. […] Thus, a protein extract of breast cancer cells pretreated with EGCG also contains decreased levels of the proteasome activity.

[5] = biological target: T4, proteasome chymotrypsin-like activity in living Jurkat cells (Homo sapiens, UniProt P28074); assay: Proteasome chymotrypsin-like activity in living Jurkat T cells; assay type: cell-based; details: 10 μM, living Jurkat cells
T4 construct: endogenous in cells; host or cells: Jurkat T cells (whole cell extract or intact cells)
Protocol: FIG. 10. Inhibition of the chymotrypsin-like activity by tannic acid in intact Jurkat T cells. Intact Jurkat T cells (1×10^5 cells/ml/well) are cultured in 24-well plates. These cells are first incubated for 12 h with various concentrations of tannic acid as indicated, followed by an additional 2 h-incubation with a fluorogenic peptide substrate, Suc-Leu-Leu-Val-Tyr-AMC for the chymotrypsin-like activity. Then, cell medium (200 μl per sample) is collected and used for measurement of free AMCs.
Inhibition of the proteasome activity in living cells by tea polyphenols—To measure inhibition of the chymotrypsin-like activity in living tumor cells, Jurkat T (1×10^5 cells/ml/well), MCF7 or PC-3 cells (1×10^4 cells/ml/well) are cultured in 24-well plates. These cells are first incubated for 12 h with various concentrations of EGCG, EGC, β-lactone or LLnL, followed by an additional 2 h-incubation with fluorogenic peptide substrates, Suc-Leu-Leu-Val-Tyr-AMC for the chymotrypsin-like activity and Z-Gly-Gly-Arg-AMC for the trypsin-like activity. After that, cell medium (200 μl per sample) is collected and used for measurement of free AMCs.

inhibition of caspase-3-like activity (in words) [1]: blocked
Compound: Ac-DEVD-CMK [reference compound]

inhibition of purified calpain activity (in words) (purified calpain I): able to inhibit
Compound: CCCC[C@@H](C=O)NC(=O)[C@H](CC(C)C)NC(=O)OCc1ccccc1 [Calpeptin, calpeptin, reference compound]

Compound: (−)-gallocatechin-3-gallate [GCG]
pIC50 [2]: 6.73

Compound: Oc1cc(O)c2c(c1)OC(c1ccc(O)c(O)c1)C(O)C2 (single isomer, unassigned; (-)) [C, (−)-catechin]
inhibition of purified 20S proteasome chymotrypsin-like activity (in words) [2]: do not inhibit the proteasome activity

Compound: O=C(O)c1cc(O)c(O)c(O)c1 [gallic acid, reference compound]
fold less potent than EGCG ([2]; ratio of IC50 to EGCG): 83,000 fold | pIC50 [3]: 2.15

Compound: (−)-catechin-3-gallate [CG]
pIC50 [2]: 6.91

proteasome activity in lysate of pretreated cells [4]: decreased levels of proteasome activity
Compound: CCC[C@@H](C=O)NC(=O)[C@H](CC(C)C)NC(=O)[C@H](CC(C)C)NC(=O)OCc1ccccc1 [LLnV] (Cbz-Leu-Leu-[Nva]-aldehyde)

Compound: CCCC[C@@H](C=O)NC(=O)[C@H](CC(C)C)NC(=O)[C@H](CC(C)C)NC(C)=O [LLnL, reference compound] (Ac-Leu-Leu-[Nle]-aldehyde)
inhibition of chymotrypsin-like activity [5]: 40%

Compound: Oc1cc(O)c2c(c1)O[C@H](c1cc(O)c(O)c(O)c1)[C@@H](O)C2 [GC, (−)-gallocatechin]
inhibition of purified 20S proteasome chymotrypsin-like activity (in words) [2]: do not inhibit the proteasome activity

Compound: (−)-epicatechin-3-gallate [ECG]
pIC50 [2]: 6.71

Compound: COC(=O)c1cc(O)c(O)c(O)c1 [methyl gallate, reference compound]
inhibition of purified 20S proteasome chymotrypsin-like activity (in words) [2]: more potent than gallate

Compound: CC(C)[C@H](O)[C@@]12NC(=O)[C@H](C)[C@@H]1OC2=O [β-lactone, clastolactacystin β-lactone, reference compound]
pIC50 [2]: 6.22 | inhibition of chymotrypsin-like activity [5]: 20%
